Reference: PubChem BioAssay (NCI)
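Values below derive from 48-hour exposures of cells grown in 96-well plates, with endpoints linearly interpolated between the two concentrations bracketing the appropriate inhibition level. GI50 is the concentration that inhibits growth by half. TGI is the concentration that stops growth completely.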 Peptide text beside a SMILES is read from it. * marks the point of attachment. OSu = O=C1CCC(=O)N1O*; OBn = c1ccc(CO*)cc1; Bn = c1ccc(C*)cc1

Columns and labels:
Experiment in all cases: DTP human tumour cell line panel, 48 h
[1] = tested on: SW-620 colon
[2] = tested on: OVCAR-8 ovarian
[3] = tested on: TK-10 renal
[4] = tested on: RXF 393 renal
[5] = tested on: LOX IMVI melanoma
[6] = tested on: SK-OV-3 ovarian
[7] = tested on: SNB-75 CNS
[8] = tested on: CAKI-1 renal
[9] = tested on: U251 CNS
[10] = tested on: COLO 205 colon

Structure (SMILES): CC(C)CC(NC(=O)C(N)CCC(=O)OCc1ccccc1)C(=O)NC(COCc1ccccc1)C(=O)NC(Cc1ccccc1)C(=O)ON1C(=O)CCC1=O (stereo not drawn) (H-E(OBn)LS(Bn)F-OSu; configuration not given here)
- TGI [1]: > 100 µM
- TGI [2]: > 100 µM
- TGI [3]: 73.8 µM
- TGI [4]: 78.2 µM
- TGI [5]: 50.7 µM
- TGI [6]: 87.8 µM
- TGI [7]: > 100 µM
- TGI [8]: 64 µM
- TGI [9]: 68.5 µM

Structure (SMILES): c1cn[nH]c1
- TGI [1]: > 10 µM
- TGI [2]: > 10 µM
- TGI [10]: > 10 µM
- TGI [3]: > 10 µM
- TGI [4]: > 10 µM
- TGI [5]: > 10 µM
- TGI [6]: > 10 µM
- TGI [7]: > 10 µM
- TGI [9]: > 10 µM

Structure (SMILES): Cc1ccc(Nc2ccc(Nc3ccc(C)cc3S(=O)(=O)O)c3c2C(=O)c2ccccc2C3=O)c(S(=O)(=O)O)c1
- TGI [1]: > 100 µM
- TGI [2]: > 100 µM
- TGI [10]: > 100 µM
- TGI [3]: > 100 µM
- TGI [4]: > 100 µM
- TGI [6]: > 100 µM
- TGI [7]: > 100 µM
- TGI [8]: > 100 µM
- TGI [9]: > 100 µM

Structure (SMILES): C/C(=C/c1c(C)[nH]c(=O)[nH]c1=O)C(=O)O
- TGI [1]: > 1380 µM
- GI50 [2]: > 1380 µM
- TGI [2]: > 1380 µM
- TGI [10]: > 1380 µM
- TGI [4]: > 1380 µM
- TGI [5]: > 1380 µM
- TGI [6]: > 1370 µM
- TGI [7]: > 1380 µM
- TGI [8]: > 1380 µM
- TGI [9]: > 1370 µM

Structure (SMILES): OC1(c2ccc(Cl)cc2)c2ccccc2C2=NCc3ccccc3CN21 (stereo not drawn)
- TGI [1]: 15.8 µM
- TGI [2]: 24.8 µM
- TGI [10]: 19 µM
- TGI [3]: 28.9 µM
- TGI [5]: 24.3 µM
- TGI [6]: 21.2 µM
- TGI [7]: 19.4 µM
- TGI [8]: 37.7 µM
- TGI [9]: 25.1 µM

Structure (SMILES): COc1ccc(N2C(=O)C3c4[nH]c5ccccc5c4C4CCC(C(C)(C)C)CC4C3C2=O)cc1OC (stereo not drawn)
- TGI [1]: 72 µM
- TGI [2]: 33.9 µM
- TGI [10]: > 100 µM
- TGI [4]: 29.7 µM
- TGI [6]: 45 µM
- TGI [7]: 32.5 µM
- TGI [9]: 73 µM

Structure (SMILES): Cc1nn(-c2ccccc2)c2c1N=C(C(=O)O)CC(c1ccccc1)=N2
- TGI [1]: > 10 µM
- TGI [2]: > 10 µM
- TGI [10]: > 10 µM
- TGI [3]: > 10 µM
- TGI [5]: > 10 µM
- TGI [6]: > 10 µM
- TGI [7]: > 10 µM
- TGI [8]: > 10 µM
- TGI [9]: > 10 µM

Structure (SMILES): O=c1cc2cc(O)[nH]c(=O)c2c(O)[nH]1
- TGI [1]: > 100 µM
- TGI [10]: > 100 µM
- TGI [3]: > 100 µM
- TGI [4]: > 100 µM
- TGI [5]: > 100 µM
- TGI [6]: > 100 µM
- TGI [7]: > 100 µM
- TGI [8]: > 100 µM
- TGI [9]: > 100 µM

Structure (SMILES): CC(CC(C)(C)[N+](C)(C)C)[N+](C)(C)C (stereo not drawn)
- TGI [1]: > 100 µM
- TGI [2]: > 100 µM
- TGI [10]: > 100 µM
- TGI [3]: > 100 µM
- TGI [4]: > 100 µM
- TGI [6]: > 100 µM
- TGI [7]: > 100 µM
- TGI [8]: > 100 µM
- TGI [9]: > 100 µM

Structure (SMILES): CC(=O)N1C(OCc2ccccc2)CCN1c1ccccc1 (stereo not drawn)
- TGI [1]: > 10 µM
- TGI [2]: > 10 µM
- TGI [10]: > 10 µM
- TGI [3]: > 10 µM
- TGI [4]: > 10 µM
- TGI [5]: > 10 µM
- TGI [6]: > 10 µM
- TGI [7]: > 10 µM
- TGI [8]: > 10 µM

Structure (SMILES): CCCCNCC(O)c1cc(-c2ccc(C(F)(F)F)cc2)nc(-c2ccc(C(F)(F)F)cc2)c1 (stereo not drawn)
- GI50 [1]: 1.26 µM
- TGI [1]: 2.96 µM
- GI50 [3]: 2.16 µM
- TGI [3]: 3.83 µM
- GI50 [7]: 1.91 µM
- TGI [7]: 3.6 µM
- GI50 [8]: 1.71 µM
- TGI [8]: 3.41 µM
- GI50 [9]: 1.73 µM
- TGI [9]: 3.39 µM

Structure (SMILES): c1ccc2nn(C3CCCCO3)nc2c1 (stereo not drawn)
- TGI [2]: > 100 µM
- TGI [10]: > 100 µM
- TGI [3]: > 100 µM
- TGI [4]: > 100 µM
- TGI [6]: > 100 µM
- TGI [7]: > 100 µM
- TGI [8]: > 100 µM
- TGI [9]: > 100 µM

Structure (SMILES): Cc1ccc(CC(=O)Nc2ccc(NC(=O)CNC(=O)/C=C/c3ccc(-c4ccccc4)cc3)cc2C(=O)c2ccccc2)cc1
- TGI [1]: 19.5 µM
- TGI [2]: 3.27 µM
- TGI [10]: 32 µM
- TGI [3]: 5.95 µM
- TGI [4]: 6.6 µM
- TGI [5]: 13.4 µM
- TGI [6]: 27.4 µM
- TGI [8]: 20.4 µM
- TGI [9]: 8.67 µM

Structure (SMILES): O=C1CC(Cl)c2c(Cl)sc(Cl)c21 (stereo not drawn)
- TGI [1]: 3.61 µM
- TGI [2]: 3.32 µM
- TGI [10]: 3.7 µM
- TGI [3]: 4.51 µM
- TGI [5]: 3.15 µM
- TGI [6]: 33.3 µM
- TGI [7]: 22.8 µM
- TGI [8]: 3.18 µM

Structure (SMILES): CN(/N=C/c1ccc(Cl)c(Cl)c1)C1=NCCN1
- TGI [1]: 54.4 µM
- TGI [2]: > 100 µM
- TGI [10]: 38.9 µM
- TGI [3]: > 100 µM
- TGI [5]: 27.7 µM
- TGI [6]: 81.8 µM
- TGI [7]: > 100 µM
- TGI [8]: 37.8 µM
- TGI [9]: 59.8 µM

Structure (SMILES): S=C1CSc2c(cnc3ccccc23)N1
- TGI [2]: > 100 µM
- TGI [10]: > 100 µM
- TGI [3]: > 100 µM
- TGI [4]: > 100 µM
- TGI [5]: > 100 µM
- TGI [6]: > 100 µM
- TGI [7]: > 100 µM
- TGI [8]: > 100 µM
- TGI [9]: > 100 µM

Structure (SMILES): C/C(=N\n1c(Cc2ccccc2)n[nH]c1=O)c1ccc([N+](=O)[O-])cc1
- TGI [1]: > 100 µM
- TGI [2]: > 100 µM
- TGI [10]: > 100 µM
- TGI [3]: > 100 µM
- TGI [4]: 57.2 µM
- TGI [5]: > 100 µM
- TGI [8]: > 100 µM
- TGI [9]: > 100 µM

Structure (SMILES): Cc1ccc(NC(=O)CC(=O)N2N=C(c3ccccc3)C(N=Nc3ccc(S(=O)(=O)CCOS(=O)(=O)O)cc3)C2=O)cc1 (stereo not drawn)
- TGI [1]: > 100 µM
- TGI [2]: > 100 µM
- TGI [10]: > 100 µM
- TGI [3]: > 100 µM
- TGI [4]: > 100 µM
- TGI [5]: > 100 µM
- TGI [7]: > 100 µM
- TGI [8]: > 100 µM
- TGI [9]: > 100 µM

Structure (SMILES): C1=C[C@]2(CCC13OCCO3)COc1ccccc12
- TGI [1]: > 100 µM
- TGI [2]: > 100 µM
- TGI [10]: > 100 µM
- TGI [3]: > 100 µM
- TGI [5]: 59 µM
- TGI [6]: > 100 µM
- TGI [7]: > 100 µM
- TGI [8]: > 100 µM
- TGI [9]: > 100 µM

Structure (SMILES): c1ccc(-c2nc3ccccc3n3nnnc23)cc1
- TGI [1]: > 100 µM
- TGI [10]: > 100 µM
- TGI [3]: > 100 µM
- TGI [4]: > 100 µM
- TGI [5]: > 100 µM
- TGI [6]: > 100 µM
- TGI [9]: > 100 µM

Structure (SMILES): COc1ccc(/C=C/C(C(=O)O)C(=O)O)cc1
- TGI [1]: > 100 µM
- TGI [2]: > 100 µM
- TGI [10]: > 100 µM
- TGI [3]: > 100 µM
- TGI [5]: 39.5 µM
- TGI [6]: > 100 µM
- TGI [8]: > 100 µM
- TGI [9]: > 100 µM

Structure (SMILES): CC(C)(Oc1ccc(C(=O)c2ccc(Cl)cc2)cc1Cl)C(=O)N1CCN(c2ccccc2)CC1
- TGI [1]: > 100 µM
- TGI [2]: > 100 µM
- TGI [3]: > 100 µM
- TGI [5]: > 100 µM
- TGI [6]: > 100 µM
- TGI [9]: > 100 µM

Structure (SMILES): Cc1oc2c(C)c3oc(=O)cc(C)c3cc2c1CN
- TGI [1]: > 100 µM
- TGI [2]: > 100 µM
- TGI [10]: > 100 µM
- TGI [3]: 86.9 µM
- TGI [4]: > 100 µM
- TGI [5]: 41.9 µM
- TGI [6]: 79.2 µM
- TGI [7]: > 100 µM
- TGI [9]: 74.8 µM
